These are literature values, as cited in patent US12690594B2, “Apparatus and methods for dissolving carbon dioxide in water” (ECO-OXYGEN TECHNOLOGIES, LLC, priority 2023, dated 2026).

For the data set, the system named is dreissenid mussel. The conditions noted are these: laboratory and field studies; no concentration or exposure time printed.

`O=C=O` [carbon dioxide]: the mortality result is listed as “successfully cause mortality”; the “rate of veliger byssogenesis (settlement and colonization)” value is listed as “reduction in the rate of veliger byssogenesis”.
